Results: PMC11842024, “Reversible male contraception by targeted inhibition of serine/threonine kinase 33” (Science (New York, N.Y.), 2024)
Read-outs that look alike come from different tables or passages of the source.

How the values were obtained:
[1] = Pharmacokinetics (PK) of CDD-2807 in mice; format: in vivo; conditions: plasma; for AUC(0-inf) / AUC(0-t) / Cmax / Tmax / MRT inf / half-life: male, C57BL/6NJ, mouse; for MRT inf: read-out: MRT0-∞
Protocol: Pharmacokinetics (PK) of CDD-2807 in mice. The pharmacokinetic studies (72) of CDD-2807 were performed at three doses via intraperitoneal (i.p.) injection and oral (p.o.) administration.
CDD-2807 was dissolved in 10% Captisol containing 5% DMSO to prepare the solutions of 0.5 mg/mL, 2.5 mg/mL and 5.0 mg/mL. Twelve male mice (strain: C57BL/6NJ, 8−12 weeks) were divided equally and randomly into 4 groups (n = 3 for each dose). One group of mice were administered 5 mg/kg CDD-2807 (i.p., 10 µL/g of 0.5 mg/mL solution), the second group 25 mg/kg CDD-2807 (i.p., 10 µL/g of 2.5 mg/mL solution), the third group 5 mg/kg CDD-2807 (p.o., 10 µL/g of 0.5 mg/mL solution), and the fourth group 50 mg/kg CDD-2807 (p.o., 10 µL/g of 5.0 mg/mL solution). At 0, 5, 10, 15, 30 min, 1, 2, 4, 6, 8, 24 h post-dose, around 20 µL of blood was collected from the tail vein and anti-coagulated by heparin. The blood samples were centrifuged at 2000 g for 3 min at 4°C, and the plasma samples were transferred to tubes and stored at −80°C before analysis. All the samples were analyzed by the Thermo TSQ Quantis MS coupled with a Thermo Vanquish UHPLC (San Jose, CA). CDD-2807 was separated on a Luna C18 column (1 mm × 50 mm, 1.6 µm, Phenomenex, Torrance, CA), and eluted by a water-acetonitrile mobile phase system (both containing 0.1% formic acid, v/v) at the flow rate of 0.15 mL/min. CDD-2807 was monitored under the SRM mode coupled with a positive ESI source. The SRM ion pairs were 447→321 for CDD-2807. The ion spray voltage was set at 3500 V. High-purity nitrogen was used as the sheath gas (35 arbitrary unit), auxiliary gas (7 arbitrary unit), and high-purity argon was used as the collision gas. The temperatures of the ion transfer tube and the vaporizer were set at 300°C and 275°C, respectively. The concentration of CDD-2807 in plasma was quantified using individual calibration curves. The calibration curve was regressed with a weight of 1/x2 with high linearity (r2 >0.99). PK parameters, including half-time (t1/2), area under the plasma concentration– time curve from zero to infinity (AUC0–∞), clearance normalized by the bioavailability (CL/F), volume of distribution normalized by the bioavailability (Vd/F), and the mean residence time (MRT), were calculated by WinNonlin software (Certara, Princeton, NJ) by noncompartmental analysis. The plasma concentration–time curves were plotted in GraphPad Prism 9 (San Diego, […]

[2] = Metabolic stability assay in liver microsomes (MLM); format: in vitro ADME, mouse; conditions: for half-life at 2 µM: mouse, liver microsomes
Protocol: Metabolic stability assay in liver microsomes. The stabilities of CDD-2110, CDD-2211, CDD-2212, CDD-2807, and CDD-3348 in liver microsomes with/without Uridine Diphosphate Glucuronic Acid (UDP-GA, a cofactor of UDP-glucuronosyltransferases) were performed and half-life was calculated as previously reported (36). Briefly, each CDD compound (2.0 μM) was incubated in the mouse or human liver microsomes (0.5 mg protein/mL) at 37°C in 1× PBS fortified with NADPH (1.0 mM) and with/without UDP-GA (2.5 mM). Alamethicin (25 µg/mL) as a pore forming agent was used for the glucuronidation (Table S2A). The samples were collected at specific time-points 0, 30, and 60 min in duplicate. The reactions were terminated by adding equivalent volume of ice-cold methanol (CH3OH) and vortexed. After centrifugation at 15000 g for 10 min, 3.0 μL of the supernatant was analyzed by Thermo TSQ Quantis MS coupled with a Thermo Vanquish UHPLC (San Jose, CA) equipped with a Luna C18 column (1 mm × 50 mm, 1.6 µm, Phenomenex, Torrance, CA). The column temperature was maintained at 40°C. CDD-2807 was monitored under the selected reaction monitoring (SRM) mode coupled with a positive electrospray ionization (ESI) source. The SRM ion pairs were 447→321 for CDD-2807.

[3] = po, p.o. administration 5 mg/kg
[4] = po, p.o. administration 50 mg/kg

O=C(c1ccc2[nH]nc(C#Cc3ccccc3-c3ccccc3)c2c1)N1CC2(CCCNC2)C1 [CDD-2807]
AUC(0-inf) ([1]; ip, i.p. injection 5 mg/kg): 11.2 ± 1.11 µM·h | AUC(0-t) ([1]; ip, i.p. injection 5 mg/kg): 9.46 ± 1.47 µM·h | Cmax ([1]; ip, i.p. injection 5 mg/kg): 2950 ± 640 nM | Tmax ([1]; ip, i.p. injection 5 mg/kg): 0.33 ± 0.14 h | MRT inf ([1]; ip, i.p. injection 5 mg/kg): 11.1 ± 4.43 h | half-life ([1]; ip, i.p. injection 5 mg/kg, read-out: t1/2 (converted)): 11.9 ± 4.38 h | AUC(0-inf) ([1]; ip, i.p. injection 25 mg/kg): 67.7 ± 12.4 µM·h | AUC(0-t) ([1]; ip, i.p. injection 25 mg/kg): 55.5 ± 5.42 µM·h | Cmax ([1]; ip, i.p. injection 25 mg/kg): 11900 ± 400 nM | Tmax ([1]; ip, i.p. injection 25 mg/kg): 0.33 ± 0.14 h | MRT inf ([1]; ip, i.p. injection 25 mg/kg): 12.2 ± 3.8 h | half-life ([1]; ip, i.p. injection 25 mg/kg, read-out: t1/2 (converted)): 11.3 ± 3.41 h | half-life ([1]; ip, delivered intraperitoneally, read-out: plasma t1/2): > 11 h | AUC(0-inf) [1, 3]: 1.85 ± 0.66 µM·h | AUC(0-t) [1, 3]: 0.71 ± 0.07 µM·h | Cmax [1, 3]: 60 ± 20 nM | Tmax [1, 3]: 1.03 ± 0.96 h | MRT inf [1, 3]: 51.2 ± 28.9 h | half-life ([1]; po, p.o. administration 5 mg/kg, read-out: t1/2 (converted)): 36.1 ± 19.9 h | AUC(0-inf) [1, 4]: 2.47 ± 0.34 µM·h | AUC(0-t) [1, 4]: 1.88 ± 0.36 µM·h | Cmax [1, 4]: 180 ± 90 nM | Tmax [1, 4]: 2.67 ± 1.15 h | MRT inf [1, 4]: 16.5 ± 2.8 h | half-life ([1]; po, p.o. administration 50 mg/kg, read-out: t1/2 (converted)): 12.6 ± 1.5 h | CL/F ([1]; p.o. administration 5 mg/kg): 2.91 ± 0.87 mg/h/µM/kg | Vd/F ([1]; p.o. administration 5 mg/kg): 134.88 ± 26.14 mg/µM/kg | CL/F ([1]; p.o. administration 50 mg/kg): 20.52 ± 3.02 mg/h/µM/kg | Vd/F ([1]; p.o. administration 50 mg/kg): 376.76 ± 89.83 mg/µM/kg | Metabolic stability MLM, t1/2 ([2]; 2.0 µM, 0.5 mg protein/mL, NADPH, data >60 min is an extrapolated estimate): > 1 h | Metabolic stability in MLM ([2]; Phase I metabolism): ~ 1 hour | Metabolic stability in MLM ([2]; Phases I and II metabolism): ~ 50 minutes | half-life at 2 µM ([2]; 2.0 µM, 0.5 mg protein/mL, NADPH, data >60 min is an extrapolated estimate, read-out: Metabolic stability MLM, t1/2): 1.18 h | half-life at 2 µM ([2]; NADPH with UDP-GA (2.5 mM), alamethicin, read-out: MLM, t1/2, liver microsomes with glucuronidation): 0.833 h
